Laboratory results: US4863935A, “Mitomycin compounds having useful anti-tumor activity” (priority 1986, dated 1989)

Experiments:
[1] = tested on: lymphocytic Leukemia P-388; test: Anti-tumour activity against lymphocytic Leukemia P-388 in mice; assay type: in vivo, mouse, female of CDF strain; settings: for (ILSmax)c: (ILSmax of test compound)/(ILSmax of mitomycin C), ILS=(T-C)/C×100; for (TI)c: (TI of test compound)/(TI of mitomycin C), TI = OPD/dose which results in ILS30; for ED (optimal dose, highest survival) / ED (30% increase of life-span): Mus musculus, P388, ip, i.p. 24 h after implantation; for ED (optimal dose, highest survival): dose resulting in the highest survival ratio, 30 days, read-out: OPD; for ED (30% increase of life-span): read-out: Dose needed to give ILS30
Description: Also, their therapeutic indexes, expressed by the formula:
TI=(OPD)/(dose which results in ILS30),
against lymphocytic Leukemia P-388 and the maximum increased life spans (ILSmax), defined by the formula: […]
(§1) As used herein, the term "LD50 " denotes the acute toxicity. The term "ED50 " denotes the administered amount needed for reducing the volume of Sarcoma 180 solid tumours in animals to 50% of the corresponding tumour volume in control (untreated) animals. The term "WBC4000 " denotes the minimum dose of the drug needed to reduce the number of peripheral leucocytes to 4000/mm^3. A greater TI value results in a broader tolerance to the drug, which is advantageous for higher anti-tumour activity and decreased toxicity. The term "T" used herein denotes the average survival days of the test animals administered with the test compound. The term "C" denotes the average survival days of the control (untreated) animals. The term "OPD" denotes the dose of the drug resulting in the highest survival ratio. The term "ILS30 " denotes a 30% increase of life-span.
The experiment was carried out in the following manner. 1×10^6 lymphocytic Leukemia P-388 tumour cells were abdominally implanted into each mouse of a group consisting of 5 mice (body weight about 22 g; female of CDF strain). 24 hours after implantation, a physiological saline solution (0.2 ml) containing the test compound with or without addition of Tween 80 was abdominally given to the test animal.
Table 7 indicates anti-tumour activities of selected Compounds (I) against lyphocytic Leukemia P-388.

Sarcoma 180 solid tumour = test: ED50 against Sarcoma 180 solid tumour implanted in mice; assay type: in vivo, male mouse (ddy strain); settings: for (CI)c: (CI of test compound)/(CI of mitomycin C), CI = LD50/ED50; for ED50: Mus musculus, Sarcoma-180, iv, 168 h, i.v. (tail vein) 24 h after implantation, tumour volume at 7 days, dose for T/C of 0.5
Description: With regard to the so-called chemotherapeutic index viz. the CI value against sarcoma 180 solid tumour, expressed by the formula: […]
as §1
the term (CI)c denotes (CI of the test compound)/(CI of mitomycin C), and
5×10^6 sarcoma 180 solid tumor cells were abdominally implanted into ddy mice. 7 days after this, ascites cells were sampled. The cells were washed once with a sterilized physiological saline and were used to prepare a cell suspension containing 5×10^7 cells per ml of a sterilized physiological saline. On each occasion, 0.1 ml of the cell suspension was subcutaneously implanted under the skin of the right armpit of a male mouse (ddy strain; body weight 20±2 g). The test compound which was dissolved in a physiological saline with or without addition of Tween 80 was injected into the tail vein of each animal of a group consisting of 5 mice at a dose of 0.1-0.2 ml 24 hours after the implantation of the tumor cells.
The anti-tumor activity was determined in the following manner:
7 days after the implantation, the major axis (a) and the minor axis (b) of the tumour were measured to calculate a value of (a×b^2)/2 which corresponds to the volume of the tumour. The antitumour activity was expressed by the ratio of the volume of the tumour (T) of the group of animals administered with the test compound to the corresponding volume of tumours (C) of the untreated animals.
On graph paper, T/C was plotted on the ordinate using an arithmetic scale and the administered amount of test compound was plotted on the abscissa using a logarithmic scale. The relationship between the dose and T/C was shown by a straight line determined by the method of least squares, from which ED50 viz. a dose corresponding to T/C of 0.5 was obtained.

[2] = LD50 acute toxicity, ddy mice, single abdominal injection; settings: mouse, in vivo, ip, 5 ddy mice, 14 days observation, Behrens-Koerber's method
Description: as §1
LD50, ED50 and WBC4000 were respectively determined as follows:
Each animal of the test group, consisting of 5 ddy mice, was administered once with a test compound by abdominal injection. […] To determine the LD50 value, Behrens-Koerber's method was applied.

Row | SMILES | (ILSmax)c [1] | (TI)c [1] | ED (optimal dose, highest survival) [1] [mg/kg] | ED (30% increase of life-span) [1] [mg/kg] | (CI)c (Sarcoma 180 solid tumour) | ED50 (Sarcoma 180 solid tumour) [mg/kg] | LD50 at 336 h [2] [mg/kg]
1 | CNC(=O)SCCNC1=C(C)C(=O)C2=C(C1=O)[C@@H](COC(N)=O)[C@@]1(OC)[C@H]3N[C@H]3CN21 [Compound 1, 7-N--(2-methylaminocarbonylthioethyl)mitomycin C] | 1.44 | 1.33 | 25 | 0.78 | > 1.39 | 25.8 | > 100
2 | CCN(CC)C(=O)SCCNC1=C(C)C(=O)C2=C(C1=O)[C@@H](COC(N)=O)[C@@]1(OC)[C@H]3N[C@H]3CN21 [Compound 4, 7-N--(2-diethylaminocarbonylthioethyl)mitomycin C] | > 1.21 | 1.18 | 25 | 2.02 | 1.64 | 13.3 | 45
3 | CO[C@@]12[C@H](COC(N)=O)C3=C(C(=O)C(C)=C(NCCSC(=O)NC(C)(C)C)C3=O)N1C[C@@H]1N[C@@H]12 [Compound 5, 7-N--(2-t-butylaminocarbonylthioethyl)mitomicin C] | > 1.17 | 1.80 | 25 | 1.32 | 1.22 | 8.8 | 30
4 | COC(=O)[C@@H]1CCCN1C(=O)SCCNC1=C(C)C(=O)C2=C(C1=O)[C@@H](COC(N)=O)[C@@]1(OC)[C@H]3N[C@H]3CN21 [Compound 6, 7-N--[2-((S)--2-methoxycarbonylpyrrolidino)carbonylthioethyl]mitomycin C] | > 1.82 | 9.09 | 100 | 1.1 | 1.77 | 10.1 | > 50
5 | CO[C@@]12[C@H](COC(N)=O)C3=C(C(=O)C(C)=C(NCCSC(=O)NC(C)C)C3=O)N1C[C@@H]1N[C@@H]12 [Compound 7, 7-N--(2-isopropylaminocarbonylthioethyl)mitomycin C] | > 1.76 | 2.48 | 12.5 | 0.77 | 2.29 | 7 | 45
6 | COC(=O)[C@@H](NC(=O)SCCNC1=C(C)C(=O)C2=C(C1=O)[C@@H](COC(N)=O)[C@@]1(OC)[C@H]3N[C@H]3CN21)C(C)C [Compound 9, 7-N--[2-((S)--1-methoxycarbonyl-2-methylpropyl)-aminocarbonylthioethyl]mitomycin C] | > 1.54 | 0.92 | 12.5 | 0.84 | 0.81 | 15.9 | 37.5
7 | CCC(CC)NC(=O)SCCNC1=C(C)C(=O)C2=C(C1=O)[C@@H](COC(N)=O)[C@@]1(OC)[C@H]3N[C@H]3CN21 [Compound 11, 7-N--[2-(1-ethylpropyl)aminocarbonylthioethyl]mitomycin C] | > 1.47 | 1.86 | 25 | 1.04 | 1.40 | 11.1 | 45
8 | CO[C@@]12[C@H](COC(N)=O)C3=C(C(=O)C(C)=C(NCCSC(=O)NC4CCN(Cc5ccccc5)CC4)C3=O)N1C[C@@H]1N[C@@H]12 [Compound 12, 7-N--[2-(1-benzylpiperidine-4-yl)aminocarbonylthioethyl]mitomycin C] | > 1.47 | > 1.10 | 12.5 | < 0.78 | 1.61 | 8.1 | 37.5
9 | CO[C@@]12[C@H](COC(N)=O)C3=C(C(=O)C(C)=C(NCCSC(=O)NC(COCc4ccccc4)C(C)C)C3=O)N1C[C@@H]1N[C@@H]12 (stereo partly shown) [Compound 13] | > 2.57 | 1.96 | 7.5 | 0.33 | 2.01 | 4.5 | 26.3
10 | CO[C@@]12[C@H](COC(N)=O)C3=C(C(=O)C(C)=C(NCCSC(=O)N4CCC[C@H]4C(=O)NCc4ccccc4)C3=O)N1C[C@@H]1N[C@@H]12 [Compound 14, 7-N--[2-((S)--2-benzylaminocarbonylpyrrolidino)-carbonylthioethyl]mitomycin C] | 1.44 | 0.93 | 50 | 3.46 | 2.23 | 13.6 | 75
11 | CO[C@@]12[C@H](COC(N)=O)C3=C(C(=O)C(C)=C(NCCSC(=O)NCc4ccccc4)C3=O)N1C[C@@H]1N[C@@H]12 [Compound 22, 7-N--(2-benzylaminocarbonylthioethyl)mitomycin C] | 1.43 | 3.36 | 25 | 0.62 | 1.44 | 10.2 | 37.5
12 | CCNC(=O)SCCNC1=C(C)C(=O)C2=C(C1=O)[C@@H](COC(N)=O)[C@@]1(OC)[C@H]3N[C@H]3CN21 [Compound 23, 7-N--(2-ethylaminocarbonylthioethyl)mitomycin C] | 1.16 | 3.28~1.64 | 25 | 0.33 | 2.48 | 8.3 | 52.5
13 | CO[C@@]12[C@H](COC(N)=O)C3=C(C(=O)C(C)=C(NCCSC(=O)NCC(C)C)C3=O)N1C[C@@H]1N[C@@H]12 [Compound 24, 7-N--(2-isobutylaminocarbonylthioethyl)mitomycin C] | 1.26 | 2.16 | 25 | 0.5 | 0.89 | 9.9 | 22.5
14 | CO[C@@]12[C@H](COC(N)=O)C3=C(C(=O)C(C)=C(NCCSC(=O)N4CCC[C@H]4C(=O)Nc4ccc(O)cc4)C3=O)N1C[C@@H]1N[C@@H]12 [Compound 45, 7-N--{2-[(S)--2-(4-hydroxyanilino)carbonylpiperidino]carbonylthioethyl}mitomycin C] |  |  |  |  | > 0.51 | 89.1 | > 100
15 | CO[C@@]12[C@H](COC(N)=O)C3=C(C(=O)C(C)=C(NCCSC(=O)NC(C(C)C)C(C)C)C3=O)N1C[C@@H]1N[C@@H]12 [Compound 46, 7-N--[2-(1-isopropyl-2-methylpropyl)aminocarbonylthioethyl]mitomycin C] |  |  |  |  | 1.27 | 12.5 | 37.5
16 | CO[C@@]12[C@H](COC(N)=O)C3=C(C(=O)C(C)=C(NCCSC(=O)NC(CO)C(C)C)C3=O)N1C[C@@H]1N[C@@H]12 (stereo partly shown) [Compound 48, 7-N--[2-(1-hydroxymethyl-2-methylpropyl)aminocarbonylthioethyl]mitomycin C] |  |  |  |  | 1.39 | 14.3 | 45
17 | CO[C@@]12[C@H](COC(N)=O)C3=C(C(=O)C(C)=C(NCCSC(=O)NCCc4ccccn4)C3=O)N1C[C@@H]1N[C@@H]12 [Compound 49, 7-N--[2-{2-(2-pyridyl)ethyl}aminocarbonylthioethyl]mitomycin C] |  |  |  |  | 1.57 | 22.8 | 75
